In patent US7194978B2, “Inducing sterility in fish by disrupting the development of the GnRH system” (University of Maryland Biotechnology Institute, priority 2003, dated 2007):

How the values were obtained:
[1] = test system: sGnRH gene expression; test: sGnRH transcript levels in seabream larvae after GABA immersion, quantitative RT-PCR; assay type: in vivo, gilthead seabream (Sparus aurata); settings: immersion in GABA 10^−7 to 10^−3 M for 18 hours, sampled 24 hours after treatment
Experimental: (§1) FIGS. 2A, B and C show the effect of GABA treatment on GnRH gene expression during development. Larvae were sampled 24 hours after overnight treatment at 3 days pf ( ? ), 1 week pf ( ? ) or 2 weeks pf ( ? ) and levels of GnRH transcript were measured by quantitative RT-PCR Values on the Y axis are expressed as copy number/20 ng total RNA. Values on the X axis range from 0 to 1 mM GABA. 100 ng total RNA was isolated from tissues using a modified acid-phenol extraction method (TRI REAGENT, MRC, Inc., Cincinnati, Ohio) and reverse transcribed into cDNA using random hexamers and MMLV reverse transcriptase. PCR was performed in 96-well plates on diluted cDNA templates using SYBR® Green PCR Core Reagent (PE Applied Biosystems, Foster City, Calif.) and the relevant GnRH primers. Primers were designed to span intron/exon boundaries in order to avoid amplification of genomic DNA. Amplification reactions were carried out using the ABI Prism® 7700 Sequence Detection System (PE Applied Biosystems), which consists of a built-in thermalcycler, laser irradiation and CCD detector system, and software analysis package. For each reaction, the Prism® 7700 generated an amplification plot of fluorescence signal versus cycle number, and CT (the fractional cycle number at which fluorescence passes a baseline threshold value) was determined (Fink et al., 1998). […] Quantitation of the amount of target in each sample was accomplished by comparing CT values of unknowns to standards to determine initial copy number. […]
(§2) Seabream. […] At 24 hours post-treatment, transcript levels for each of the 3 GnRHs in seabream were determined using real-time, fluorescence-based quantitative RT-PCR assays. […]
Seabream larvae at 3 days, 1 week and 2 weeks pf were immersed in various concentrations of GABA (10^−7 to 10^−3 M) for a period of 18 hours (200 larvae per treatment). Larvae were collected 24 hours after the treatments and transcript levels for each of the 3 GnRHs were determined using real-time, fluorescence-based quantitative RT-PCR assays.

[2] = test system: cGnRH-II expression; test: cGnRH-II transcript levels in seabream larvae after GABA immersion, quantitative RT-PCR; assay type: in vivo, gilthead seabream (Sparus aurata); settings: 2-week-old seabream larvae; immersion in GABA 10^−7 to 10^−3 M for 18 hours; sampled 24 hours after treatment
Experimental: as §1, with “Primers were designed to span intron/exon boundaries in order to avoid amplification of genomic DNA. Amplification reactions were carried out using the ABI Prism® 7700 Sequence Detection System (PE Applied Biosystems), which consists of a built-in thermalcycler, laser irradiation and CCD detector system, and software analysis package.” left out
as §2

[3] = test system: sbGnRH transcript levels; test: sbGnRH transcript levels in seabream larvae after GABA immersion, quantitative RT-PCR; assay type: in vivo, gilthead seabream (Sparus aurata); settings: seabream larvae 3 days, 1 week, 2 weeks pf; immersion in GABA 10^−7 to 10^−3 M for 18 hours
Experimental: as §1, with “Primers were designed to span intron/exon boundaries in order to avoid amplification of genomic DNA. Amplification reactions were carried out using the ABI Prism® 7700 Sequence Detection System (PE Applied Biosystems), which consists of a built-in thermalcycler, laser irradiation and CCD detector system, and software analysis package.” left out
as §2

[4] = test system: forebrain (TN) GnRH neurons; test: Developmental migration of GnRH neurons in zebrafish larvae, whole-mount ISH; assay type: in vivo, zebrafish (Danio rerio); settings: sampled at 7, 9, 10, 12 days pf
Description: Digoxigenin (DIG)-labeled complimentary RNA (cRNA) probe was synthesized from plasmid DNA, containing the seabream TN GnRH cDNA, using T7 RNA polymerase. The probe was hybridized to cellular TN GnRH mRNA in whole, fixed 3–22 days pf of larvae. The hybridized probe was then detected with anti-DIG antibody conjugated to alkaline phosphatase (Anti-DIG-AP), and the complex (mRNA:DIG-labeled cRNA:Anti-DIG-AP) was detected by an enzymatic reaction of AP with a chromogenic substrate, which forms a precipitating dark purple pigment. The procedure was performed according to a standard published protocol for whole-mount ISH (Westerfield et al., 1995). The age of the larvae are boxed on the top left of each photograph. TN GnRH-expressing cells are indicated by an arrow.
FIGS. 3A, B and C show the effect of GABA-ergic compounds on developmental migration of TN GnRH neurons in zebrafish. […] Note the extent of neuronal migration toward the brain seen in untreated fish, as compared to treated fish. Whole-mount ISH analysis was done as described in FIG. 1. Differential interference contrasting microscopy was used to visualize TN GnRH hybridization in deep tissue layers of the nasal placode. All panels at 200×.
Zebrafish. Zebrafish larvae 5–8 days post-fertilization (dpf) and 7–10 dpf were immersed in GABA (1 mM) or Muscimol (100 micromolar). […]

[5] = test system: zebrafish gonads; test: Gonadal development in zebrafish, histological analysis of the gonads at 9 weeks; assay type: in vivo, zebrafish (Danio rerio); settings: histology after 9 weeks of growth
Experimental: FIGS. 4A. B and C show the effect of GABA-ergic compounds on gonadal development in zebrafish. Hematoxylineosin staining of gonadal tissues of 9-week old zebrafish exposed at 7–10 days pf to A) no treatment, B) 1 mM GABA and C) 100 μM Muscimol. Note greater degree of organization and more advanced gamete development in A), compared to B) and C). s: somatic cells; o: oogonia; v: oocytes in early stages of vitellogenesis; v*: vitellogenic oocytes with abnormal follicle development. A), C) at 200×; B) 400×.
Zebrafish. Zebrafish larvae 5–8 days post-fertilization (dpf) and 7–10 dpf were immersed in GABA (1 mM) or Muscimol (100 micromolar). Muscimol is a potent GABA agonist that acts specifically on GABAA receptor subtypes. Similar to the post-treatment assays conducted on seabream larvae, zebrafish tissue samples (n=12) were collected at 7, 9, 10, and 12 days pf and also after 9 weeks of growth for detection/analysis of GnRH neuron development and histological analysis of the gonads. […] Confirmation is made to determine the effectiveness of the treatment prior to sexual maturation (or lack thereof).
Zebrafish larvae were immersed in GABA (1 mM) or Muscimol (100 micromolar) at 5–8 days pf and 7–10 days pf. (Muscimol is a potent GABA agonist that acts specifically on GABAA receptor subtypes). Samples (n=12) were collected at 7, 9, 10, and 12 day pf for subsequent detection of GnRH neurons. […]

[6] = zebrafish larvae immersed in 1 mM GABA at 5–8 dpf and 7–10 dpf
[7] = zebrafish larvae immersed in 100 micromolar Muscimol at 5–8 dpf and 7–10 dpf

| Structure (SMILES) | sGnRH gene expression ([1]; 1-week-old seabream larvae) | sGnRH gene expression ([1]; 2-week-old seabream larvae) | sGnRH gene expression ([1]; 3-day-old seabream larvae) | cGnRH-II expression [2] | sbGnRH transcript levels [3] | migration of the GnRH neurons [4, 6] | gonadal development [5, 6] | migration of the GnRH neurons [4, 7] | gonadal development [5, 7] |
| --- | --- | --- | --- | --- | --- | --- | --- | --- | --- |
| NCCCC(=O)O [GABA, Gamma-aminobutyric acid] | dose-dependent decrease | no effect | no effect | slight increase | no definitive effect seen | clearly inhibited | clearly inhibited |  |  |
| NCc1cc(=O)[nH]o1 [Muscimol] |  |  |  |  |  |  |  | clearly inhibited | clearly inhibited |
